Source: paper PMC2645942 (Journal of medicinal chemistry, 2008)

Columns and labels:
[1] = molecular target: αY209Cβγ (α1Y209Cβ2γ2 GABAA receptor) (Rattus norvegicus, UniProt P18508+P62813, INS375LLRMFSFK/Y236C); assay: Radioligand binding, αY209Cβγ mutant
[2] = molecular target: αβγF77C (α1β2γ2F77C GABAA receptor) (Rattus norvegicus, UniProt P18508+P62813, F115C/INS375LLRMFSFK); assay: Radioligand binding, αβγF77C mutant
[3] = molecular target: αD97Cβγ (α1D97Cβ2γ2 GABAA receptor) (Rattus norvegicus, UniProt P18508+P62813, D124C/INS375LLRMFSFK); assay: Radioligand binding, αD97Cβγ mutant

Measured: specific binding of radioligand

CCOC(=O)c1ncn2c1CN(C)C(=O)c1cc(F)ccc1-2 [Ro15-1788, ethyl 8-fluoro-5,6-dihydro-5-methyl-6-oxo-4H-imidazo[1,5-a][1,4]benzodiazepine-3-carboxylate]
not measurable: all assays above

CN1C(=O)CN=C(c2ccccc2F)c2cc([N+](=O)[O-])ccc21 [flunitrazepam]
not measurable: all assays above
